Measured values reported in PubChem BioAssay (NCI).
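Here, GI50 denotes the concentration required for 50% inhibition of growth. TGI: concentration producing complete growth inhibition.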

Key:
Experiment in all cases: growth of human tumour cells (NCI), 384-well format
[1] = tested on: DU-145 prostate
[2] = tested on: OVCAR-3 ovarian
[3] = tested on: HOP-62 NSCLC
[4] = tested on: M14 melanoma
[5] = tested on: U251 glioblastoma
[6] = tested on: MDA-MB-231 breast
[7] = tested on: T-47D breast
[8] = tested on: HL-60(TB) leukemia
[9] = tested on: SNB-75 CNS
[10] = tested on: SW-620 colon
[11] = tested on: RXF 393 renal
[12] = tested on: NCI-H522 lung
[13] = tested on: SN12C renal
[14] = tested on: SF-539 CNS
[15] = tested on: 786-0 renal
[16] = tested on: RPMI-8226 leukemia
[17] = tested on: MCF7 breast
[18] = tested on: EKVX NSCLC
[19] = tested on: HOP-92 NSCLC
[20] = tested on: SNB-19 CNS
[21] = tested on: NCI-H23 lung
[22] = tested on: K-562 leukemia
[23] = tested on: SF-268 CNS
[24] = tested on: ACHN renal
[25] = tested on: UACC-257 melanoma
[26] = tested on: NCI-H460 NSCLC
[27] = tested on: KM12 colon
[28] = tested on: SF-295 CNS
[29] = tested on: NCI-H226 lung
[30] = tested on: OVCAR-4 ovarian
[31] = tested on: COLO 205 colon
[32] = tested on: HT29 colon
[33] = tested on: MOLT-4 leukemia
[34] = tested on: SK-MEL-5 melanoma
[35] = tested on: HCT-116 colon
[36] = tested on: HCT-15 colon
[37] = tested on: A498 renal
[38] = tested on: MALME-3M melanoma
[39] = tested on: LOX IMVI melanoma
[40] = tested on: UACC-62 melanoma
[41] = tested on: CAKI-1 renal
[42] = tested on: PC-3 prostate
[43] = tested on: SK-OV-3 ovarian
[44] = tested on: IGROV1 ovarian
[45] = tested on: NCI/ADR-RES ovarian
[46] = tested on: TK-10 renal
[47] = tested on: HCC-2998 colon
[48] = tested on: MDA-MB-468 breast
[49] = tested on: NCI-H322M lung
[50] = tested on: OVCAR-8 ovarian
[51] = tested on: UO-31 renal
[52] = tested on: BT-549 breast
[53] = tested on: A549 NSCLC
[54] = tested on: HS 578T breast
[55] = tested on: CCRF-CEM leukemia
[56] = tested on: SR leukemia

Structure (SMILES): Cn1nccc1Nc1nccc(-c2ccn([C@H](CO)c3ccc(Cl)c(F)c3)c(=O)c2)n1
- GI50 [1]: 18.3 µM
- TGI [1]: 38.1 µM
- GI50 [2]: 18.5 µM
- TGI [2]: 54.3 µM
- GI50 [3]: 19.5 µM
- TGI [3]: 47.2 µM
- GI50 [4]: 0.0794 µM
- TGI [4]: 10.3 µM
- GI50 [5]: 7.42 µM
- TGI [5]: 20.9 µM
- GI50 [6]: 21.3 µM
- TGI [6]: > 100 µM
- GI50 [7]: 11.1 µM
- TGI [7]: 54.5 µM
- GI50 [8]: 0.11 µM
- TGI [8]: 13.1 µM
- GI50 [9]: 22.6 µM
- TGI [9]: 45.3 µM
- GI50 [10]: 1.65 µM
- TGI [10]: 14.6 µM
- GI50 [11]: 21.2 µM
- TGI [11]: 49 µM
- GI50 [12]: 2.66 µM
- TGI [12]: 9.45 µM
- GI50 [13]: 1.67 µM
- TGI [13]: 4.67 µM
- GI50 [14]: 1.76 µM
- TGI [14]: 3.55 µM
- GI50 [15]: 19.9 µM
- TGI [15]: 58.7 µM
- GI50 [16]: 16.5 µM
- TGI [16]: 31 µM
- GI50 [17]: 37.4 µM
- TGI [17]: > 100 µM
- GI50 [18]: 76.5 µM
- TGI [18]: > 100 µM
- GI50 [19]: 14.3 µM
- TGI [19]: 28.2 µM
- GI50 [20]: 16.6 µM
- TGI [20]: 52 µM
- GI50 [21]: 0.899 µM
- TGI [21]: 24 µM
- GI50 [22]: 6.93 µM
- TGI [22]: 21.7 µM
- GI50 [23]: 38.1 µM
- TGI [23]: > 100 µM
- GI50 [24]: 45 µM
- TGI [24]: > 100 µM
- GI50 [25]: 0.209 µM
- TGI [25]: > 100 µM
- GI50 [26]: 20.4 µM
- TGI [26]: 45.1 µM
- GI50 [27]: 18.6 µM
- TGI [27]: > 100 µM
- GI50 [28]: 54 µM
- TGI [28]: > 100 µM
- GI50 [29]: 26.4 µM
- TGI [29]: 64.8 µM
- GI50 [30]: > 100 µM
- TGI [30]: > 100 µM
- GI50 [31]: 0.102 µM
- TGI [31]: 12.9 µM
- GI50 [32]: 0.443 µM
- TGI [32]: 20.7 µM
- GI50 [33]: 11.6 µM
- TGI [33]: 24 µM
- GI50 [34]: 0.409 µM
- TGI [34]: 22.1 µM
- GI50 [35]: 1.78 µM
- TGI [35]: 11.8 µM
- GI50 [36]: 28.6 µM
- TGI [36]: > 100 µM
- GI50 [37]: 18.1 µM
- TGI [37]: 33.9 µM
- GI50 [38]: 0.0289 µM
- TGI [38]: 0.104 µM
- GI50 [39]: 1.08 µM
- TGI [39]: 11.7 µM
- GI50 [40]: 0.0678 µM
- TGI [40]: 14.8 µM
- GI50 [41]: 15.5 µM
- TGI [41]: > 100 µM
- GI50 [42]: 29.8 µM
- TGI [42]: 84.3 µM
- GI50 [43]: 15.9 µM
- TGI [43]: 33.3 µM
- GI50 [44]: 14 µM
- TGI [44]: 39.5 µM
- GI50 [45]: 78.1 µM
- TGI [45]: > 100 µM
- GI50 [46]: 21.2 µM
- TGI [46]: 51.7 µM
- GI50 [47]: 0.565 µM
- TGI [47]: 12.1 µM
- GI50 [48]: 23.7 µM
- TGI [48]: 48.5 µM
- GI50 [49]: 15.6 µM
- TGI [49]: > 100 µM
- GI50 [50]: 3.44 µM
- TGI [50]: 10.7 µM
- GI50 [51]: 30 µM
- TGI [51]: > 100 µM
- GI50 [52]: 15.1 µM
- TGI [52]: 34.6 µM
- GI50 [53]: 25.3 µM
- TGI [53]: > 100 µM
- GI50 [54]: 18.8 µM
- TGI [54]: 34.1 µM
- GI50 [55]: 4.29 µM
- TGI [55]: 15 µM
- GI50 [56]: 47.8 µM
- TGI [56]: 85.2 µM
